Assay results as given in PubChem BioAssay AID248 (DTP/NCI, 2004).
Toxic doses and inconclusive results are not listed. No stated cut-off is given here; in the data, active means T/C of 150% or more; inactive means T/C below 125%. Peptide text beside a SMILES is read from it. * marks the point of attachment. Trt = c1ccc(C(c2ccccc2)(c2ccccc2)*)cc1; Cbz = O=C(OCc1ccccc1)*; NHNH2 = NN*

System: L1210 leukemia ip in BDF1 mice, survival T/C
Assay: NCI In Vivo Anticancer Drug Screen. Data for tumor model L1210 Leukemia (intraperitoneal) in B6D2F1 (BDF1) mice
Details: endpoint: mean survival time, higher = longer survival
In short: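 Tumor was transplanted into mice, which were then dosed with test compound or vehicle alone. Survival was recorded for each group, and the treated figure was expressed relative to the control figure.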

[1] = dose: 200.0 mg/kg/injection, schedule: Q01DX001 (ip), vehicle: Klucel (hydroxypropylcellulose) (HPC)
[2] = dose: 400.0 mg/kg/injection, schedule: Q01DX001 (ip), vehicle: Klucel (hydroxypropylcellulose) (HPC)
[3] = dose: 75.0 mg/kg/injection, schedule: Q04DX003 (ip), vehicle: saline
[4] = dose: 150.0 mg/kg/injection, schedule: Q04DX003 (ip), vehicle: saline
[5] = dose: 300.0 mg/kg/injection, schedule: Q04DX003 (ip), vehicle: saline
[6] = dose: 100.0 mg/kg/injection, schedule: Q04DX003 (ip), vehicle: saline with Tween-80
[7] = dose: 200.0 mg/kg/injection, schedule: Q04DX003 (ip), vehicle: saline with Tween-80
[8] = dose: 400.0 mg/kg/injection, schedule: Q04DX003 (ip), vehicle: saline with Tween-80
[9] = dose: 100.0 mg/kg/injection, schedule: Q01DX009 (ip), vehicle: saline with Tween-80
[10] = dose: 200.0 mg/kg/injection, schedule: Q01DX009 (ip), vehicle: saline with Tween-80
[11] = dose: 400.0 mg/kg/injection, schedule: Q01DX009 (ip), vehicle: saline with Tween-80
[12] = dose: 100.0 mg/kg/injection, schedule: Q01DX001 (ip), vehicle: Klucel (hydroxypropylcellulose) (HPC)
[13] = dose: 100.0 mg/kg/injection, schedule: Q04DX003 (ip), vehicle: Klucel (hydroxypropylcellulose) (HPC)
[14] = dose: 200.0 mg/kg/injection, schedule: Q04DX003 (ip), vehicle: Klucel (hydroxypropylcellulose) (HPC)
[15] = dose: 400.0 mg/kg/injection, schedule: Q04DX003 (ip), vehicle: Klucel (hydroxypropylcellulose) (HPC)
[16] = dose: 100.0 mg/kg/injection, schedule: Q01DX001 (ip), vehicle: other
[17] = dose: 200.0 mg/kg/injection, schedule: Q01DX001 (ip), vehicle: other

Measured: T/C

O=C1CC(c2ccc(Cl)cc2)C(=O)O1 (stereo not drawn)
inactive: dose: 100.0 mg/kg/injection, schedule: Q01DX001 (ip), vehicle: acetone 98 % of control | dose: 100.0 mg/kg/injection, schedule: Q04DX003 (ip), vehicle: alcohol 98 % of control | dose: 200.0 mg/kg/injection, schedule: Q01DX001 (ip), vehicle: acetone 101 % of control | dose: 200.0 mg/kg/injection, schedule: Q04DX003 (ip), vehicle: alcohol 104 % of control | dose: 400.0 mg/kg/injection, schedule: Q01DX001 (ip), vehicle: acetone 94 % of control

Oc1ccc2ccnc(Cc3ccc(Br)cc3)c2c1
inactive: [1] 89 % of control | [2] 89 % of control

CCOC(=O)NN(C(=O)OCC)c1c(NN)n(C)c(=O)n(C)c1=O
inactive: [3] 107 % of control | [4] 93 % of control | [5] 91 % of control

Brc1cccc([Si](c2ccccc2)(c2ccccc2)c2cccc(Br)c2)c1
inactive: [6] 98 % of control | [7] 98 % of control | [8] 95 % of control

CCCCCCCCCCCC(=O)O
inactive: [9] 92 % of control | [10] 106 % of control | [11] 96 % of control

COC(=O)c1cocc1C(=O)N1Cc2cc3ccccc3nc2C1
inactive: [12] 103 % of control | [1] 95 % of control | [2] 94 % of control

C[N+](C)(C)C1CS(=O)C1 (stereo not drawn)
inactive: dose: 12.5 mg/kg/injection, schedule: Q04DX003 (ip), vehicle: saline 96 % of control | dose: 25.0 mg/kg/injection, schedule: Q04DX003 (ip), vehicle: saline 112 % of control | dose: 50.0 mg/kg/injection, schedule: Q04DX003 (ip), vehicle: saline 87 % of control

O/N=C/c1ccc2c(c1)OCO2
inactive: dose: 50.0 mg/kg/injection, schedule: Q01DX001 (ip), vehicle: saline 96 % of control | dose: 100.0 mg/kg/injection, schedule: Q01DX001 (ip), vehicle: saline 96 % of control | dose: 100.0 mg/kg/injection, schedule: Q04DX002 (ip), vehicle: gum acacia 106 % of control | dose: 200.0 mg/kg/injection, schedule: Q01DX001 (ip), vehicle: saline 102 % of control | dose: 200.0 mg/kg/injection, schedule: Q04DX002 (ip), vehicle: gum acacia 110 % of control | dose: 400.0 mg/kg/injection, schedule: Q01DX001 (ip), vehicle: saline 96 % of control | dose: 400.0 mg/kg/injection, schedule: Q04DX002 (ip), vehicle: gum acacia 92 % of control

Cc1cc(C)n(/N=C/c2ccc(/C=N/n3c(C)cc(C)c(C#N)c3=O)cc2)c(=O)c1C#N
inactive: [12] 91 % of control | [13] 92 % of control | [1] 87 % of control | [14] 87 % of control | [2] 94 % of control | [15] 90 % of control

Nc1ccccc1SC1CC(=O)N(c2ccc(Cl)cc2)C1=O (stereo not drawn)
inactive: [9] 91 % of control | [6] 89 % of control | [10] 88 % of control | [7] 101 % of control | [11] 98 % of control | [8] 97 % of control

C[C@]12CC[C@@H]3c4ccc(O)cc4CC[C@H]3[C@@H]1C[C@@H](O)[C@@H]2O
inactive: dose: 25.0 mg/kg/injection, schedule: Q01DX001 (sc), vehicle: steriod suspending solution 104 % of control | dose: 50.0 mg/kg/injection, schedule: Q01DX001 (sc), vehicle: steriod suspending solution 107 % of control | dose: 100.0 mg/kg/injection, schedule: Q01DX001 (sc), vehicle: steriod suspending solution 109 % of control | dose: 125.0 mg/kg/injection, schedule: Q04DX003 (sc), vehicle: steriod suspending solution 100 % of control | dose: 200.0 mg/kg/injection, schedule: Q01DX001 (sc), vehicle: steriod suspending solution 106 % of control | dose: 250.0 mg/kg/injection, schedule: Q04DX003 (sc), vehicle: steriod suspending solution 105 % of control | dose: 500.0 mg/kg/injection, schedule: Q04DX003 (sc), vehicle: steriod suspending solution 100 % of control

Cc1ccc(C(=O)CC(C(=O)c2ccccc2)c2ccccc2)cc1 (stereo not drawn)
inactive: dose: 75.0 mg/kg/injection, schedule: Q01DX009 (ip), vehicle: Klucel (hydroxypropylcellulose) (HPC) 92 % of control | [13] 94 % of control | dose: 150.0 mg/kg/injection, schedule: Q01DX009 (ip), vehicle: Klucel (hydroxypropylcellulose) (HPC) 95 % of control | [14] 104 % of control | dose: 300.0 mg/kg/injection, schedule: Q01DX009 (ip), vehicle: Klucel (hydroxypropylcellulose) (HPC) 95 % of control | [15] 98 % of control

CCOC(CN=Cc1cc(C)c2[nH]c3ccc(OC)cc3c2c1C)OCC
inactive: [16] 96 % of control | [13] 98 % of control | [17] 102 % of control | [14] 96 % of control | dose: 400.0 mg/kg/injection, schedule: Q01DX001 (ip), vehicle: other 98 % of control | [15] 96 % of control

COc1ccc(C(=O)/C=C/c2ccc(O)cc2)cc1
inactive: [3] 100 % of control | [4] 96 % of control | [5] 93 % of control

CCOC(=O)n1ccn2cncc2c1=O
inactive: [9] 86 % of control | [6] 95 % of control | [7] 101 % of control | [8] 95 % of control

NNC(=O)C(Cc1ccc(O)cc1)NC(=O)C(CO)NC(=O)C(CSC(c1ccccc1)(c1ccccc1)c1ccccc1)NC(=O)OCc1ccccc1 (stereo not drawn) (Cbz-Cys(Trt)-Ser-Tyr-NHNH2; configuration not given here)
inactive: dose: 75.0 mg/kg/injection, schedule: Q01DX001 (ip), vehicle: saline 96 % of control | dose: 150.0 mg/kg/injection, schedule: Q01DX001 (ip), vehicle: saline 96 % of control | dose: 300.0 mg/kg/injection, schedule: Q01DX001 (ip), vehicle: saline 90 % of control

CC(C)(N)CCC(C)(C)NCCCN
inactive: dose: 100.0 mg/kg/injection, schedule: Q01DX009 (ip), vehicle: water 95 % of control | dose: 100.0 mg/kg/injection, schedule: Q04DX003 (ip), vehicle: water 100 % of control | dose: 200.0 mg/kg/injection, schedule: Q01DX009 (ip), vehicle: water 98 % of control | dose: 200.0 mg/kg/injection, schedule: Q04DX003 (ip), vehicle: water 106 % of control | dose: 400.0 mg/kg/injection, schedule: Q04DX003 (ip), vehicle: water 97 % of control

O=C(O)c1ccc2c(c1)Sc1ccccc1N2
inactive: [13] 95 % of control | [14] 95 % of control

O=C(O)CSc1ccc([N+](=O)[O-])cn1
inactive: dose: 6.25 mg/kg/injection, schedule: Q01DX001 (ip), vehicle: carboxymethylcellulose (CMC) 108 % of control | dose: 12.5 mg/kg/injection, schedule: Q01DX001 (ip), vehicle: carboxymethylcellulose (CMC) 111 % of control | dose: 25.0 mg/kg/injection, schedule: Q01DX001 (ip), vehicle: carboxymethylcellulose (CMC) 104 % of control | dose: 37.5 mg/kg/injection, schedule: Q01DX001 (ip), vehicle: carboxymethylcellulose (CMC) 104 % of control | dose: 50.0 mg/kg/injection, schedule: Q01DX001 (ip), vehicle: carboxymethylcellulose (CMC) 115 % of control | dose: 100.0 mg/kg/injection, schedule: Q01DX001 (ip), vehicle: carboxymethylcellulose (CMC) 101 % of control | dose: 200.0 mg/kg/injection, schedule: Q01DX001 (ip), vehicle: carboxymethylcellulose (CMC) 103 % of control | dose: 400.0 mg/kg/injection, schedule: Q01DX001 (ip), vehicle: carboxymethylcellulose (CMC) 101 % of control

C=CCN(Cc1cnc2nc(N)nc(N)c2n1)c1ccc(C(=O)NC(CCC(=O)O)C(=O)O)cc1 (stereo not drawn)
inactive: dose: 1.5 mg/kg/injection, schedule: Q01DX009 (ip), vehicle: sodium bicarbonate 108 % of control | dose: 3.0 mg/kg/injection, schedule: Q01DX009 (ip), vehicle: sodium bicarbonate 116 % of control | dose: 6.0 mg/kg/injection, schedule: Q01DX009 (ip), vehicle: sodium bicarbonate 118 % of control

CC(=O)/C=C/c1ccccc1
inactive: dose: 100.0 mg/kg/injection, schedule: Q01DX001 (ip), vehicle: gum acacia 91 % of control | dose: 200.0 mg/kg/injection, schedule: Q01DX001 (ip), vehicle: gum acacia 105 % of control | dose: 400.0 mg/kg/injection, schedule: Q01DX001 (ip), vehicle: gum acacia 97 % of control

Cc1ccc2c(c1)C=C/C(=C/c1cc[n+](C)c3ccccc13)N2C
inactive: [16] 97 % of control | [17] 92 % of control
